Source: PubChem BioAssay AID1259411 (Chemical Carcinogenesis Research Information System (CCRIS), 2018)
Activity calls are given as the source filed them. How the calls were made is not given here.

Test system: rodent carcinogenicity bioassays, tumor incidence
Assay: CCRIS carcinogenicity studies
Outline: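 Archive of carcinogenicity, mutagenicity, tumor promotion and tumor inhibition results drawn from journals, NCI reports and other sources, expert-reviewed; covers 1985-2011 and is no longer updated.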

CN(C)CCN(C)N=O
carcinogen call (Species: HAMSTER, Strain/Sex: SYRIAN/FEMALE, Route: INTRAGASTRIC, Dose: 0, 36 MG/ML CORN OIL/ETHYL ACETATE (2:1) SOLUTION ADMINISTERED AS 0.2 ML 1/WK FOR 61 WK (STUDY DURATION: 106 WK), Tumor Site: Type of Lesion: NASAL CAVITY: ADENOMA, ESOPHAGUS: CARCINOMA, PAPILLOMA): active; positive | carcinogen call (Species: HAMSTER, Strain/Sex: SYRIAN/MALE, Route: INTRAGASTRIC, Dose: 0, 36 MG/ML CORN OIL/ETHYL ACETATE (2:1) SOLUTION ADMINISTERED AS 0.2 ML 1/WK FOR 61 WK (STUDY DURATION: 106 WK), Tumor Site: Type of Lesion: NASAL CAVITY: ADENOMA, CARCINOMA, LIVER: HEPATOCELLULAR TUMOR): active; positive | carcinogen call (Species: RAT, Strain/Sex: F344/FEMALE, Route: GAVAGE, Dose: 0, 14, MG/WK FOR A TOTAL DOSE OF 2.2 MMOL (STUDY DURATION: 40 WK), Dose: 0, 14, MG/WK FOR A TOTAL DOSE OF 2.2 MMOL (STUDY DURATION: 40 WK), Tumor Site: Type of Lesion: ESOPHAGUS: TUMOR, NASAL MUCOSA: TUMOR): active; positive | carcinogen call (Species: RAT, Strain/Sex: F344/FEMALE, Route: INTRAGASTRIC, Dose: 0, 36 MG/ML CORN OIL/ETHYL ACETATE (2:1) SOLUTION ADMINISTERED AS 0.2 ML 2/WK FOR 20 WK (STUDY DURATION: 38 WK), Tumor Site: Type of Lesion: NASAL CAVITY: ADENOMA, ESOPHAGUS: CARCINOMA, PAPILLOMA): active; positive | carcinogen call (Species: RAT, Strain/Sex: F344/FEMALE, Route: INTRAVESICULAR, Dose: 0, 7 MG IN 0.2 ML ETHANOL: DEIONIZED WATER (1:3) 2/WK FOR 23 WK (TOTAL DOSE 2.5 NMOL) (STUDY DURATION: LIFESPAN), Tumor Site: Type of Lesion: ESOPHAGUS: TUMOR, NASAL MUCOSA: TUMOR): active; positive | carcinogen call (Species: RAT, Strain/Sex: F344/MALE, Route: GAVAGE, Dose: 0, 14 MG/WK FOR A TOTAL DOSE OF 2.2 MMOL (STUDY DURATION: 40 WK), Tumor Site: Type of Lesion: ESOPHAGUS: TUMOR, NASAL MUCOSA: TUMOR): active; positive | carcinogen call (Species: RAT, Strain/Sex: F344/MALE, Route: INTRAGASTRIC, Dose: 0, 36 MG/ML CORN OIL/ETHYL ACETATE (2:1) SOLUTION ADMINISTERED AS 0.2 ML 2/WK FOR 20 WK (STUDY DURATION: 38 WK), Tumor Site: Type of Lesion: NASAL CAVITY: ADENOMA, CARCINOMA, ESOPHAGUS: CARCINOMA, PAPILLOMA): active; positive | carcinogen call (Species: RAT, Strain/Sex: F344/MALE, Route: ORAL, Dose: 0, 144 MG/L DEIONIZED DRINKING WATER ADMINISTERED AS 80 ML/WK FOR 20 WK (STUDY DURATION: 38 WK), Tumor Site: Type of Lesion: NASAL CAVITY: ADENOMA, ESOPHAGUS: CARCINOMA, PAPILLOMA): active; positive

c1ccc2n[nH]nc2c1
carcinogen call (Species: MOUSE, Strain/Sex: B6C3F1/FEMALE, Route: ORAL, Dose: 0, 11700, 23500 PPM IN DIET FOR 104 WK (STUDY DURATION: 106-109 WK), Dose: 0, 11700, 23500 PPM IN DIET FOR 104 WK (STUDY DURATION: 106-109 WK), Tumor Site: Type of Lesion: LUNG: ALVEOLAR/BRONCHIOLAR CARCINOMA): equivocal | carcinogen call (Species: MOUSE, Strain/Sex: B6C3F1/MALE, Route: ORAL, Dose: 0, 11700, 23500 PPM IN DIET FOR 104 WK (STUDY DURATION: 106-109 WK), Dose: 0, 11700, 23500 PPM IN DIET FOR 104 WK (STUDY DURATION: 106-109 WK)): inactive; negative | carcinogen call (Species: RAT, Strain/Sex: F344/FEMALE, Route: ORAL, Dose: 0, 6700, 12100 PPM IN DIET FOR 78 WK (STUDY DURATION: 105-106 WK), Dose: 0, 6700, 12100 PPM IN DIET FOR 78 WK (STUDY DURATION: 105-106 WK), Tumor Site: Type of Lesion: BRAIN: TUMOR): equivocal | carcinogen call (Species: RAT, Strain/Sex: F344/MALE, Route: ORAL, Dose: 0, 6700, 12100 PPM IN DIET FOR 78 WK (STUDY DURATION: 105-106 WK), Dose: 0, 6700, 12100 PPM IN DIET FOR 78 WK (STUDY DURATION: 105-106 WK), Tumor Site: Type of Lesion: BRAIN: TUMOR): equivocal

CN(N=O)c1ccccc1
carcinogen call (Species: HAMSTER, Strain/Sex: SYRIAN/FEMALE, Route: GAVAGE, Dose: 0, 5 MG/KG 1/WK FOR 50 WK (TOTAL DOSE: 0; 1.8 MMOL) (STUDY DURATION: LIFETIME), Dose: 0, 5 MG/KG 1/WK FOR 50 WK (TOTAL DOSE: 0; 1.8 MMOL) (STUDY DURATION: LIFETIME), Tumor Site: Type of Lesion: LIVER: CHOLANGIOMA): active; positive | carcinogen call (Species: MOUSE, Strain/Sex: SWISS/MALE,FEMALE, Route: ORAL, Dose: 0.070 G/L IN DRINKING WATER FOR 28 WK, Tumor Site: Type of Lesion: LUNG: ADENOMA): active; positive | carcinogen call (Species: RAT, Strain/Sex: ALBINO/MALE,FEMALE, Route: ORAL, Dose: 2.0 MG IN 10 ML DRINKING WATER (AVE) 5/WK FOR 52 WK, Tumor Site: Type of Lesion: ESOPHAGUS: PAPILLOMA, SQUAMOUS CELL CARCINOMA, FORESTOMACH: PAPILLOMA, SQUAMOUS CELL CARCINOMA, MOUTH: PAPILLOMA, SQUAMO, Tumor Site: Type of Lesion: ESOPHAGUS: PAPILLOMA, SQUAMOUS CELL CARCINOMA, FORESTOMACH: PAPILLOMA, SQUAMOUS CELL CARCINOMA, MOUTH: PAPILLOMA, SQUAMO): active; positive | carcinogen call (Species: RAT, Strain/Sex: STRAIN-BD, Route: ORAL, Dose: 14 MG/KG/D IN DIET FOR 250 D (AVE TOTAL DOSE: 3.4 G/KG), Tumor Site: Type of Lesion: ESOPHAGUS: SQUAMOUS CELL CARCINOMA): active; positive | carcinogen call (Species: RAT, Strain/Sex: STRAIN-CB/MALE,FEMALE, Route: ORAL, Dose: 5 MG AS 0.2% FOR 7 MO THEN 2.5 MG AS 0.1% IN DRINKING WATER 1/D, 6/WK, Tumor Site: Type of Lesion: ESOPHAGUS: BENIGN TUMOR OR MALIGNANT TUMOR): active; positive

CC(=O)Nc1ccc(-c2ccc(NC(C)=O)cc2)cc1
carcinogen call (Species: RAT, Route: INTRAPERITONEAL, Tumor Site: Type of Lesion: EAR (CANAL), MAMMARY GLAND, INTEGUMENTARY SYSTEM (SKIN), Tumor Site: Type of Lesion: EAR (CANAL), MAMMARY GLAND, INTEGUMENTARY SYSTEM (SKIN)): active; positive | carcinogen call (Species: RAT, Route: ORAL, Tumor Site: Type of Lesion: EAR (CANAL)): active; positive | carcinogen call (Species: RAT, Route: SUBCUTANEOUS, Tumor Site: Type of Lesion: MAMMARY GLAND, LIVER, EAR (ZYMBAL GLAND), Tumor Site: Type of Lesion: MAMMARY GLAND, LIVER, EAR (ZYMBAL GLAND)): active; positive

CN(C)c1ccc(C(=C2C=CC(=[N+](C)C)C=C2)c2ccc(N(C)C)cc2)cc1
carcinogen call (Species: MOUSE, Strain/Sex: B6C3F1/FEMALE, Route: ORAL, Dose: 0, 100, 300, 600 PPM IN DIET FOR 104 WK (STUDY DURATION: 2 YR), Dose: 0, 100, 300, 600 PPM IN DIET FOR 104 WK (STUDY DURATION: 2 YR), Tumor Site: Type of Lesion: LIVER: MALIGNANT NEOPLASM, HARDERIAN GLAND: ADENOMA, UTERUS: TYPE-A RETICULUM CELL SARCOMA, OVARIES: TYPE-A RETICULUM CE, Tumor Site: Type of Lesion: LIVER: MALIGNANT NEOPLASM, HARDERIAN GLAND: ADENOMA, UTERUS: TYPE-A RETICULUM CELL SARCOMA, OVARIES: TYPE-A RETICULUM CE): active; positive | carcinogen call (Species: MOUSE, Strain/Sex: B6C3F1/MALE, Route: ORAL, Dose: 0, 100, 300, 600 PPM IN DIET FOR 104 WK (STUDY DURATION: 2 YR), Dose: 0, 100, 300, 600 PPM IN DIET FOR 104 WK (STUDY DURATION: 2 YR), Tumor Site: Type of Lesion: LIVER: MALIGNANT NEOPLASM, HARDERIAN GLAND: ADENOMA): active; positive | carcinogen call (Species: RAT, Strain/Sex: F344/FEMALE, Route: ORAL, Dose: 0, 100, 300, 600 PPM IN FEED FOR 24 MO (STUDY DURATION: 24 MO), Dose: 0, 100, 300, 600 PPM IN FEED FOR 24 MO (STUDY DURATION: 24 MO), Tumor Site: Type of Lesion: LIVER: HEPATOCELLULAR ADENOMA, THYROID GLAND: FOLLICULAR CELL ADENOCARCINOMA): active; positive | carcinogen call (Species: RAT, Strain/Sex: F344/MALE, Route: ORAL, Dose: 0, 100, 300, 600 PPM IN FEED FOR 24 MO (STUDY DURATION: 24 MO), Dose: 0, 100, 300, 600 PPM IN FEED FOR 24 MO (STUDY DURATION: 24 MO), Tumor Site: Type of Lesion: LIVER: HEPATOCELLULAR ADENOMA, THYROID GLAND: FOLLICULAR CELL ADENOCARCINOMA): active; positive

Cc1ccc2cc3c(ccc4ccccc43)c3c2c1CC3OS(=O)(=O)O (stereo not given)
carcinogen call (Species: RAT, Strain/Sex: SPRAGUE-DAWLEY/FEMALE, Route: SUBCUTANEOUS, Dose: 0, 0.2 UMOL IN 0.1 ML SESAME OIL: DMSO (9:1) 3/WK FOR 20 DOSES (STUDY DURATION: 52 WK), Tumor Site: Type of Lesion: INJECTION SITE: SARCOMA): active; positive
